In the supplement of paper PMC10307832:

Experiments:
Test in all cases: relative viability (nuclei count vs DMSO), 5 days (fraction); higher = more cells survive
[1] = compound: C1/C(=C\C2=CC=CS2)/C(=O)/C(=C/C3=CC=CS3)/C1 + Cc1nc(Nc2ncc(C(=O)Nc3c(C)cccc3Cl)s2)cc(N2CCN(CCO)CC2)n1 [Dasatinib] (partner 0.075 µM)
How it was run: (§1)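 Dosing by pin tool came one day after lung cancer cell lines were seeded in 1536-well plates, using either one drug or a fixed anchor-drug dose plus five library-drug doses (not always all listed) in √10 steps. After 5 days, nuclei were counted on 4× images. Relative viability is treated-well nuclei count divided by vehicle-well nuclei count, and values are medians of duplicate plates.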

TPCA-1 + OSI-027 = compound: C1=CC(=CC=C1C2=CC(=C(S2)NC(=O)N)C(=O)N)F [TPCA-1] + COc1cccc2cc(-c3nc([C@H]4CC[C@H](C(=O)O)CC4)n4ncnc(N)c34)[nH]c12 [OSI-027] (partner 0.5 µM)
How it was run: as §1

[2] = compound: C1/C(=C\C2=CC=CS2)/C(=O)/C(=C/C3=CC=CS3)/C1 + CCNC(=O)c1noc(-c2cc(C(C)C)c(O)cc2O)c1-c1ccc(CN2CCOCC2)cc1 [Luminespib] (partner 0.01 µM)
How it was run: as §1

[3] = compound: C[C@]12O[C@H](C[C@]1(O)CO)n1c3ccccc3c3c4c(c5c6ccccc6n2c5c31)CNC4=O [Lestaurtinib] + O=C(CCCCCCC(=O)Nc1ccccc1)NO [Vorinostat] (partner 1 µM)
How it was run: as §1

## NCI-H1437
[1]; first compound 0.2 µM
  relative viability: 0.408
[1]; first compound 0.6325 µM
  relative viability: 0.446
[1]; first compound 2 µM
  relative viability: 0.561
[1]; first compound 6.325 µM
  relative viability: 0.412
[1]; first compound 20 µM
  relative viability: 0.378
TPCA-1 + OSI-027; first compound 0.04 µM
  relative viability: 0.888
TPCA-1 + OSI-027; first compound 0.1265 µM
  relative viability: 0.89
TPCA-1 + OSI-027; first compound 0.4 µM
  relative viability: 0.908
TPCA-1 + OSI-027; first compound 1.265 µM
  relative viability: 0.921
TPCA-1 + OSI-027; first compound 4 µM
  relative viability: 0.652
[2]; first compound 0.2 µM
  relative viability: 1.26
[2]; first compound 0.6325 µM
  relative viability: 1.23
[2]; first compound 2 µM
  relative viability: 1.06
[2]; first compound 6.325 µM
  relative viability: 0.95
[2]; first compound 20 µM
  relative viability: 1.09
[3]; first compound 0.005 µM
  relative viability: 0.819
[3]; first compound 0.01581 µM
  relative viability: 1
[3]; first compound 0.05 µM
  relative viability: 0.843
[3]; first compound 0.1581 µM
  relative viability: 0.731
[3]; first compound 0.5 µM
  relative viability: 0.525

## NCI-H1650
[1]; first compound 0.2 µM
  relative viability: 0.313
[1]; first compound 0.6325 µM
  relative viability: 0.3
[1]; first compound 2 µM
  relative viability: 0.341
[1]; first compound 6.325 µM
  relative viability: 0.306
[1]; first compound 20 µM
  relative viability: 0.316
TPCA-1 + OSI-027; first compound 0.04 µM
  relative viability: 0.639
TPCA-1 + OSI-027; first compound 0.4 µM
  relative viability: 0.682
TPCA-1 + OSI-027; first compound 1.265 µM
  relative viability: 0.798
TPCA-1 + OSI-027; first compound 4 µM
  relative viability: 0.531
[2]; first compound 0.2 µM
  relative viability: 0.176
[2]; first compound 0.6325 µM
  relative viability: 0.194
[2]; first compound 2 µM
  relative viability: 0.205
[2]; first compound 6.325 µM
  relative viability: 0.218
[2]; first compound 20 µM
  relative viability: 0.185
[3]; first compound 0.005 µM
  relative viability: 0.667
[3]; first compound 0.01581 µM
  relative viability: 0.528
[3]; first compound 0.05 µM
  relative viability: 0.784
[3]; first compound 0.1581 µM
  relative viability: 0.54
[3]; first compound 0.5 µM
  relative viability: 0.491

## NCI-H1651
[1]; first compound 0.2 µM
  relative viability: 0.435
[1]; first compound 0.6325 µM
  relative viability: 0.504
[1]; first compound 2 µM
  relative viability: 0.417
[1]; first compound 6.325 µM
  relative viability: 0.425
[1]; first compound 20 µM
  relative viability: 0.401
TPCA-1 + OSI-027; first compound 0.04 µM
  relative viability: 0.756
TPCA-1 + OSI-027; first compound 0.1265 µM
  relative viability: 0.612
TPCA-1 + OSI-027; first compound 0.4 µM
  relative viability: 0.648
TPCA-1 + OSI-027; first compound 1.265 µM
  relative viability: 0.741
TPCA-1 + OSI-027; first compound 4 µM
  relative viability: 0.544
[2]; first compound 0.2 µM
  relative viability: 0.97
[2]; first compound 0.6325 µM
  relative viability: 0.933
[2]; first compound 2 µM
  relative viability: 1.13
[2]; first compound 6.325 µM
  relative viability: 0.751
[2]; first compound 20 µM
  relative viability: 0.716
[3]; first compound 0.005 µM
  relative viability: 0.555
[3]; first compound 0.01581 µM
  relative viability: 0.617
[3]; first compound 0.05 µM
  relative viability: 0.539
[3]; first compound 0.1581 µM
  relative viability: 0.58
[3]; first compound 0.5 µM
  relative viability: 0.23

## NCI-H1666
[1]; first compound 0.2 µM
  relative viability: 0.833
[1]; first compound 0.6325 µM
  relative viability: 0.847
[1]; first compound 2 µM
  relative viability: 0.811
[1]; first compound 6.325 µM
  relative viability: 0.786
[1]; first compound 20 µM
  relative viability: 0.875
TPCA-1 + OSI-027; first compound 0.04 µM
  relative viability: 0.856
TPCA-1 + OSI-027; first compound 0.1265 µM
  relative viability: 0.788
TPCA-1 + OSI-027; first compound 0.4 µM
  relative viability: 0.851
TPCA-1 + OSI-027; first compound 1.265 µM
  relative viability: 0.883
TPCA-1 + OSI-027; first compound 4 µM
  relative viability: 0.865
[2]; first compound 0.2 µM
  relative viability: 1.09
[2]; first compound 0.6325 µM
  relative viability: 1.01
[2]; first compound 2 µM
  relative viability: 1.02
[2]; first compound 6.325 µM
  relative viability: 0.49
[2]; first compound 20 µM
  relative viability: 1.04
[3]; first compound 0.005 µM
  relative viability: 1.1
[3]; first compound 0.01581 µM
  relative viability: 1.22
[3]; first compound 0.05 µM
  relative viability: 1.24
[3]; first compound 0.1581 µM
  relative viability: 0.998
[3]; first compound 0.5 µM
  relative viability: 0.799

## NCI-H1734
[1]; first compound 0.2 µM
  relative viability: 0.458
[1]; first compound 0.6325 µM
  relative viability: 0.49
[1]; first compound 2 µM
  relative viability: 0.498
[1]; first compound 6.325 µM
  relative viability: 0.458
[1]; first compound 20 µM
  relative viability: 0.497
TPCA-1 + OSI-027; first compound 0.04 µM
  relative viability: 0.822
TPCA-1 + OSI-027; first compound 0.1265 µM
  relative viability: 0.477
TPCA-1 + OSI-027; first compound 0.4 µM
  relative viability: 0.656
TPCA-1 + OSI-027; first compound 1.265 µM
  relative viability: 0.745
TPCA-1 + OSI-027; first compound 4 µM
  relative viability: 0.33
[2]; first compound 0.2 µM
  relative viability: 0.193
[2]; first compound 0.6325 µM
  relative viability: 0.19
[2]; first compound 2 µM
  relative viability: 0.209
[2]; first compound 6.325 µM
  relative viability: 0.22
[2]; first compound 20 µM
  relative viability: 0.211
[3]; first compound 0.005 µM
  relative viability: 0.872
[3]; first compound 0.01581 µM
  relative viability: 0.824
[3]; first compound 0.05 µM
  relative viability: 0.525
[3]; first compound 0.1581 µM
  relative viability: 0.258
[3]; first compound 0.5 µM
  relative viability: 0.212

## NCI-H1755
[1]; first compound 0.2 µM
  relative viability: 0.393
[1]; first compound 0.6325 µM
  relative viability: 0.462
[1]; first compound 2 µM
  relative viability: 0.445
[1]; first compound 6.325 µM
  relative viability: 0.366
[1]; first compound 20 µM
  relative viability: 0.375
TPCA-1 + OSI-027; first compound 0.04 µM
  relative viability: 0.755
TPCA-1 + OSI-027; first compound 0.1265 µM
  relative viability: 0.621
TPCA-1 + OSI-027; first compound 0.4 µM
  relative viability: 0.804
TPCA-1 + OSI-027; first compound 1.265 µM
  relative viability: 0.539
TPCA-1 + OSI-027; first compound 4 µM
  relative viability: 0.496
[2]; first compound 0.2 µM
  relative viability: 0.51
[2]; first compound 0.6325 µM
  relative viability: 0.402
[2]; first compound 2 µM
  relative viability: 0.642
[2]; first compound 6.325 µM
  relative viability: 0.341
[2]; first compound 20 µM
  relative viability: 0.274
[3]; first compound 0.005 µM
  relative viability: 0.654
[3]; first compound 0.01581 µM
  relative viability: 0.74
[3]; first compound 0.05 µM
  relative viability: 0.674
[3]; first compound 0.1581 µM
  relative viability: 0.397
[3]; first compound 0.5 µM
  relative viability: 0.356

## NCI-H1793
[1]; first compound 0.2 µM
  relative viability: 0.381
[1]; first compound 0.6325 µM
  relative viability: 0.441
[1]; first compound 2 µM
  relative viability: 0.472
[1]; first compound 6.325 µM
  relative viability: 0.341
[1]; first compound 20 µM
  relative viability: 0.37
TPCA-1 + OSI-027; first compound 0.04 µM
  relative viability: 0.233
TPCA-1 + OSI-027; first compound 0.4 µM
  relative viability: 0.275
TPCA-1 + OSI-027; first compound 1.265 µM
  relative viability: 0.285
TPCA-1 + OSI-027; first compound 4 µM
  relative viability: 0.139
[2]; first compound 0.2 µM
  relative viability: 0.229
[2]; first compound 0.6325 µM
  relative viability: 0.178
[2]; first compound 2 µM
  relative viability: 0.189
[2]; first compound 6.325 µM
  relative viability: 0.153
[2]; first compound 20 µM
  relative viability: 0.179
[3]; first compound 0.005 µM
  relative viability: 0.531
[3]; first compound 0.01581 µM
  relative viability: 0.884
[3]; first compound 0.05 µM
  relative viability: 0.561
[3]; first compound 0.1581 µM
  relative viability: 0.524
[3]; first compound 0.5 µM
  relative viability: 0.252

## NCI-H1915
[1]; first compound 0.2 µM
  relative viability: 0.337
[1]; first compound 0.6325 µM
  relative viability: 0.335
[1]; first compound 2 µM
  relative viability: 0.328
[1]; first compound 6.325 µM
  relative viability: 0.202
[1]; first compound 20 µM
  relative viability: 0.321
TPCA-1 + OSI-027; first compound 0.04 µM
  relative viability: 0.695
TPCA-1 + OSI-027; first compound 0.1265 µM
  relative viability: 0.563
TPCA-1 + OSI-027; first compound 0.4 µM
  relative viability: 0.676
TPCA-1 + OSI-027; first compound 1.265 µM
  relative viability: 0.509
TPCA-1 + OSI-027; first compound 4 µM
  relative viability: 0.467
[2]; first compound 0.2 µM
  relative viability: 0.851
[2]; first compound 0.6325 µM
  relative viability: 0.786
[2]; first compound 2 µM
  relative viability: 0.741
[2]; first compound 6.325 µM
  relative viability: 0.356
[2]; first compound 20 µM
  relative viability: 0.821
[3]; first compound 0.005 µM
  relative viability: 0.512
[3]; first compound 0.01581 µM
  relative viability: 0.489
[3]; first compound 0.05 µM
  relative viability: 0.427
[3]; first compound 0.1581 µM
  relative viability: 0.325
[3]; first compound 0.5 µM
  relative viability: 0.162
